Common to all, as to format: cell-based, human
For one assay, the system named is CD49f^+ astrocytes. Kind of assay: Intracellular Ca2+ imaging of hiPSC-astrocytes after ATP application. To be noted: 100 μM ATP, 60s application. The text has this: See also FIG. 32. […] Bar graphs show the maximum number of evoked spikes per 1 second stimulus (n=8/18), the maximum firing frequency in hertz (Hz) (n=5/15), the amplitude adaptation ratio between first and last action potential (n=5/15), the maximum action potential height (mV) (n=8/17), and the frequency of spontaneous excitatory post-synaptic currents (Hz) (n=5/9) in hiPSC-neurons at day 50 when cultured alone vs. with astrocytes during days 33-50. Dots correspond to 3 different lines. Each dot represents an independent cell. n=neurons alone/neurons co-cultured with astrocytes. Error bars show mean±standard deviation. p-values were calculated using a two-tailed, unpaired t-test. […] Scale bar, 50 μm. […] Error bars show mean±standard deviation (n=3 technical replicates). p-values were calculated using a two-tailed, unpaired t-test. […] Error bars show mean±standard deviation (n=4 technical replicates). p-values were calculated using a one-way ANOVA with Dunnett's correction for multiple comparisons. […] Error bars show mean±standard deviation. p-values were calculated using a one-way ANOVA with Dunnett's correction for multiple comparisons.
CD49f^+ astrocytes from three iPSC lines were cultured on glass coverslips coated with 0.1 mg/ml poly-L-ornithine followed by 10 μg/ml laminin. […] Fluorescence was recorded at 2 Hz by a cooled CCD camera (Hamamatsu™ Orca R^2). […]

In assay [1] the test system is OLIG2-GFP knock-in hESC reporter line. Kind of assay: OLIG2-GFP expression by flow cytometry during differentiation of hESC reporter line. The following applies: RA 100 nM from beginning of induction, SHH 100 ng/ml from day 8, or SAG replacing SHH, added to RA. As for the experimental part: RA at a concentration of 100 nM from day 0 results in the highest yield of GFP^+ cells. […] Negative: human embryonic stem cell (hESC) line RUES1. […] Error bars are SEM (N=3). […] Only GFP^+ cells form spheres, providing enrichment to the GFP^+ population.
An OLIG2-GFP knock-in hESC reporter line was used to track OLIG2^+ progenitors by live fluorescent imaging. First, PAX6^+ cells were induced using dual inhibition of SMAD signaling in adherent cultures. Next, to mimic the embryonic spinal cord environment, different concentrations of RA and/or SHH were applied at various times and quantified OLIG2-GFP expression through flow cytometry (FIG. 2A).
At day 12, cells were detached and placed into low-attachment plates to promote their aggregation into spheres. The minimum number of cells required to form a sphere was at least 100 cells, and we noted that the majority of cells in the spheres were GFP^+. […]
(§1) Cells were enzymatically harvested by Accutase™ treatment for 25 minutes at 37° C. to obtain a single cell suspension. Cells were then re-suspended in 100 μl of their respective medium containing the appropriate amount of either primary antibody or fluorescence-conjugated antibodies and were incubated on ice for 30 minutes shielded from light. […] Flow cytometry data were analyzed using BD FACSDiva™ software.
For orientation: Flow cytometry measures light scatter and fluorescence of single cells or particles in a stream.

For the next assay, the system named is O4^+ cells. Kind of assay: FACS analysis for O4+ cells at day 75 of differentiation. To be noted: RA only vs RA and SAG in the first 12 days of differentiation. As for the experimental part:
Endogenous SHH levels are higher in the samples that were not exposed to SHH/SAG. Error bars are SEM (N=3). […] Negative Control: APC-conjugated secondary antibody only. […] A substantial population of GFP^+ cells is present only under the dual inhibition of SMAD proteins, indicating a synergistic effect between RA and the dual inhibition of SMAD. DSi: Dual SMAD inhibition; SB: SB431542; LDN: […].
Spheres were plated on pO/L plates, as described above, in PDGF Medium at day 30, changing 2/3 of the PDGF Medium every other day until day 75 of differentiation. The appearance of O4^+ cells was assessed by live O4 staining from day 55 onwards (FIG. 6). At day 75, O4+ OPCs could be isolated by FACS (FIG. 7I). Alternatively, for terminal oligodendrocyte differentiation (FIG. 7G, 7H), cells were cultured in Glial Medium from day 75, changing 2/3 of the medium every 3 days for two weeks.
as §1

Consider `Nc1ncnc2c1ncn2[C@@H]1O[C@H](COP(=O)(O)OP(=O)(O)OP(=O)(O)O)[C@@H](O)[C@H]1O` [ATP], for which the “[Ca^2+]i response to extracellular ATP” value in the assay on CD49f^+ astrocytes is given as “robustly responded”.

On to `CC1=C(/C=C/C(C)=C/C=C/C(C)=C/C(=O)O)C(C)(C)CCC1` [RA, all trans retinoic acid], for which the “OLIG2^+ progenitors” value in assay [1] was 40.6%. On to `CNC1CCC(N(Cc2cccc(-c3ccncc3)c2)C(=O)c2sc3ccccc3c2Cl)CC1` (stereo not shown) [SAG], for which the “decrease in the O4^+ population in cells not provided with SAG” value in the assay with O4^+ cells is given as 56%. Also, in assay [1], the “OLIG2^+ progenitors” value worked out at 70.1%.

For the origin of these results see patent publication US20220251504A1, “FUNCTIONAL ASTROCYTES DERIVED FROM PLURIPOTENT STEM CELLS AND METHODS OF MAKING AND USING THE SAME” (New York Stem Cell Foundation, Inc., priority 2019, published 2022).
